Data: PMC7901650, “Garcinoic Acid Is a Natural and Selective Agonist of Pregnane X Receptor” (Journal of Medicinal Chemistry, 2020)

What was measured:
hPXR = biological target: T1, hPXR (Homo sapiens, UniProt O75469); test: AlphaScreen coactivator recruitment assay, PXR; type: biochemical; settings: 10 μM compound concentration
T1 construct: GST-LBD
T1 sequence (O75469 146-433 limits assumed): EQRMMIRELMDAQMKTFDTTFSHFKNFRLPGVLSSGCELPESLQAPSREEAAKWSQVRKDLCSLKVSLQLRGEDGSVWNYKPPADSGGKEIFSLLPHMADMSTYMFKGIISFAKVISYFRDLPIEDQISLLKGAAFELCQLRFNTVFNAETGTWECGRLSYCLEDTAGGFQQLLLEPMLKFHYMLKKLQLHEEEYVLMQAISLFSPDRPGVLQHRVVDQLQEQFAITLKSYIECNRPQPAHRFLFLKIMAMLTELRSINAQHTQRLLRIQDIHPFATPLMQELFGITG

LXRβ receptor = biological target: T2, LXRβ receptor (Homo sapiens, UniProt P55055); test: AlphaScreen nuclear receptor panel, LXRβ; type: biochemical
T2 construct: GST-LBD
T2 sequence (P55055 222-460 limits assumed): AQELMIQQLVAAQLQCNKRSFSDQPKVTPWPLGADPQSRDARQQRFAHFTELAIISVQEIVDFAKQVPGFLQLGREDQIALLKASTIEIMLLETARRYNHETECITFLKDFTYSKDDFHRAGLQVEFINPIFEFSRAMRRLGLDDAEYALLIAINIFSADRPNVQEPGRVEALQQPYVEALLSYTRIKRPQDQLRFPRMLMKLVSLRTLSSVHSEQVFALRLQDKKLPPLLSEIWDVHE
Description: (§1) Ligand binding activity of GA (1) was explored via AlphaScreen technology over a panel of NRs that, along with hPXR (Figure 1A), included major human endocrine and metabolic receptors, such as the retinoid X receptor (RXR), constitutive androstane receptor (CAR), farnesoid X receptor (FXR), vitamin D receptor (VDR), liver X receptor (LXR) forms α and β, and the PPAR isoforms α, δ, and γ (see Figure S1). GA (1) was compared to its analogue δ-tocotrienol (5), the vitamers 3 and 4, their short-chain metabolites (SCMs) α-CEHC (10) and γ-CEHC (11), and the LCMs 2 and 8 (Chart 1). The test was performed in the presence of reference standard agonists for the different NRs.
(§2) The activity of nuclear receptors was determined using AlphaScreen technology, a recruitment coactivator assay previously described.[56]
(§3) (A) The test was carried out at 10 μM compound final concentration. Ligand binding to nuclear receptors was expressed as luminescence units. […] Vehicle was assessed to obtain a measure of background signal (basal evaluation). […] In presence of the ligand, the nuclear receptor LBD undergoes conformational changes, binds to the coactivator and the chemical energy is transferred from donor to acceptor beads in order to produce a signal, i.e. luminescence; in this case the compounds behaves as agonist, changing the conformation of the receptor to recruit the coactivator. […]

recombinant human Pgp = biological target: T3, recombinant human Pgp (Homo sapiens, UniProt P08183); test: P-glycoprotein activity assay (Pgp-Glo); type: biochemical; settings: 50 nM to 25 μM
T3 construct: purchased Promega
Description: To evaluate the effects of GA on recombinant human Pgp in a cell membrane fraction, we used the Pgp-Glo assay system (Promega, Madison, WI), according to the manufacturer’s instruction. The assay relies on the ATP dependence of the light-generating reaction of firefly luciferase.

RXR = test: AlphaScreen nuclear receptor panel, RXR; type: biochemical, human
Description: as §1, §2, §3

T3 sequence (P08183 whole entry): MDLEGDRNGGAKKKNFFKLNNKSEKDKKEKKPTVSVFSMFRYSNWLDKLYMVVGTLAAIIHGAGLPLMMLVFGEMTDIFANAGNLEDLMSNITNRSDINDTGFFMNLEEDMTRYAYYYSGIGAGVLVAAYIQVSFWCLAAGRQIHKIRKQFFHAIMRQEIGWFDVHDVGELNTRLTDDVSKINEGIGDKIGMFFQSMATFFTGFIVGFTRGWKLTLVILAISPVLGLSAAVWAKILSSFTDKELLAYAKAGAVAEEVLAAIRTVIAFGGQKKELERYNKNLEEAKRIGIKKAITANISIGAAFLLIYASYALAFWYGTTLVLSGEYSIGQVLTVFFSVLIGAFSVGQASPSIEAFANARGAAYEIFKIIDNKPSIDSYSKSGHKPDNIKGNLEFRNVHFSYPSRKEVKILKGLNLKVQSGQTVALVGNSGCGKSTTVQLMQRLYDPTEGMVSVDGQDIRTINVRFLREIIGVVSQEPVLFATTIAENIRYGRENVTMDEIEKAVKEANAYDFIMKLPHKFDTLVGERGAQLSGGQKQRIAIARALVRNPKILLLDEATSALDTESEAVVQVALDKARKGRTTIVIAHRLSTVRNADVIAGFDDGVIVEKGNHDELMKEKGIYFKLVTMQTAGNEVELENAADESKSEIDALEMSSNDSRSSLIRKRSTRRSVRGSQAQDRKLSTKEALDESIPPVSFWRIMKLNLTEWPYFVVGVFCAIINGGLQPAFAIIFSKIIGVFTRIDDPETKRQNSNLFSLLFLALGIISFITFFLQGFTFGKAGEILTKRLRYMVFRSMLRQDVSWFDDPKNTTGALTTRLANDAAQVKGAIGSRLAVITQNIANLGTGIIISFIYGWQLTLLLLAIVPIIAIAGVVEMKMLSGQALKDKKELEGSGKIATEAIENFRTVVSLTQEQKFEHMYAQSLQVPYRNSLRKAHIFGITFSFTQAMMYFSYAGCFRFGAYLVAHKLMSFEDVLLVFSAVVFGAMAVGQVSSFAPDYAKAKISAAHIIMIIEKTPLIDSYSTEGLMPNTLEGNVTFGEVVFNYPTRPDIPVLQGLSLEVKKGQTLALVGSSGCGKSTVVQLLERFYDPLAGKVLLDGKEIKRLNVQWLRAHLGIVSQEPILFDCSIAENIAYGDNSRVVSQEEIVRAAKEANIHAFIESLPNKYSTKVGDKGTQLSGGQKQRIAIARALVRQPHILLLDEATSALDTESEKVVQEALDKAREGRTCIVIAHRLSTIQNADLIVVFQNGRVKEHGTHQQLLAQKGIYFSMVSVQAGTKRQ

In the case of C/C(=C\CC/C(C)=C/CC[C@]1(C)CCc2cc(O)cc(C)c2O1)CC/C=C(\C)C(=O)O [GA (1), (2E,6E,10E)-13-[(2R)-6-hydroxy-2,8-dimethyl-chroman-2-yl]-2,6,10-trimethyltrideca-2,6,10-trienoic acid], the “PXR agonist activity (AlphaScreen, single concentration)” value (hPXR) is reported as “significant PXR agonist activity”, the “Agonist activity at LXRβ” value (LXRβ receptor) is reported as “low activity” and the “P-glycoprotein (MDR1) activity” value (recombinant human Pgp) is reported as “increased in a dose–dose-dependent manner”. For the same compound, the “Response on RXR” value (RXR) was “No response”.
